In US20110039721A1, “METHOD FOR PREDICTION ABOUT CARCINOGENICITY OF SUBSTANCE IN RODENT” (Chemicals Evaluation and Research Institute, priority 2007, published 2011):

How the values were obtained:
[1] = tested on: mRNA expressed from the genes (A) to (D) in rat liver; assay: Behavior of genes (mRNA expression level, oligo-DNA microarray) in rat liver after 28-day oral administration; format: in vivo; conditions: mRNA vs vehicle control group
How it was run: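 Rat liver RNA after 28 days of daily gavage dosing (male F344, 5 weeks old, four per group). A change reaching 1.5-fold, or 1/1.5, against solvent control scores as significant; opposite direction versus another carcinogen scores as not significant.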

[2] = tested on: liver; conditions: classification of the substance (Cr+/Cr−); cited from earlier work
[3] = tested on: rodent; conditions: classification of the substance (C+/C−); cited from earlier work
[4] = classification of the substance (M+/M−); cited from earlier work
[5] = gene group (A), Unigene No. Rn.167075
[6] = gene group (C), Unigene No. Rn.120914

ClC(Cl)=C(Cl)Cl [TS066, Tetrachloroethylene]
Cr−: Liver carcinogenicity [2]
M−: Mutagenicity by Ames test [4]
+: Behavior of gene caused by administration of chemical substance, Gene No. 6182 ([1]; gene group (A), Unigene No. Rn.5834) | Behavior of gene caused by administration of chemical substance, Gene No. 2045 ([1]; gene group (B), Unigene No. Rn.19329) | Behavior of gene caused by administration of chemical substance, Gene No. 533 ([1]; gene group (C), Unigene No. Rn.106184)
−: Behavior of gene caused by administration of chemical substance, Gene No. 4846 ([1]; gene group (A), Unigene No. Rn.144554) | Behavior of gene caused by administration of chemical substance, Gene No. 2026 [1, 5] | Behavior of gene caused by administration of chemical substance, Gene No. 4218 [1, 5] | Behavior of gene caused by administration of chemical substance, Gene No. 5600 ([1]; gene group (A), Unigene No. Rn.9836) | Behavior of gene caused by administration of chemical substance, Gene No. 1494 ([1]; gene group (B), Unigene No. Rn.1430) | Behavior of gene caused by administration of chemical substance, Gene No. 2203 ([1]; gene group (B), Unigene No. Rn.21240) | Behavior of gene caused by administration of chemical substance, Gene No. 725 ([1]; gene group (C), Unigene No. Rn.108075) | Behavior of gene caused by administration of chemical substance, Gene No. 1163 ([1]; gene group (C), Unigene No. Rn.11766) | Behavior of gene caused by administration of chemical substance, Gene No. 4973 ([1]; gene group (C), Unigene No. Rn.118529) | Behavior of gene caused by administration of chemical substance, Gene No. 4095 ([1]; gene group (C), Unigene No. Rn.119024) | Behavior of gene caused by administration of chemical substance, Gene No. 1334 [1, 6] | Behavior of gene caused by administration of chemical substance, Gene No. 6620 [1, 6] | Behavior of gene caused by administration of chemical substance, Gene No. 6303 ([1]; gene group (C), Unigene No. Rn.123063) | Behavior of gene caused by administration of chemical substance, Gene No. 5878 ([1]; gene group (C), Unigene No. Rn.143213) | Behavior of gene caused by administration of chemical substance, Gene No. 1131 ([1]; gene group (C), Unigene No. Rn.144946) | Behavior of gene caused by administration of chemical substance, Gene No. 1562 ([1]; gene group (C), Unigene No. Rn.14744) | Behavior of gene caused by administration of chemical substance, Gene No. 1741 ([1]; gene group (C), Unigene No. Rn.1647) | Behavior of gene caused by administration of chemical substance, Gene No. 893 ([1]; gene group (C), Unigene No. Rn.164817) | Behavior of gene caused by administration of chemical substance, Gene No. 6026 ([1]; gene group (C), Unigene No. Rn.167685) | Behavior of gene caused by administration of chemical substance, Gene No. 154 ([1]; gene group (C), Unigene No. Rn.185941) | Behavior of gene caused by administration of chemical substance, Gene No. 1993 ([1]; gene group (C), Unigene No. Rn.18728) | Behavior of gene caused by administration of chemical substance, Gene No. 813 ([1]; gene group (C), Unigene No. Rn.201760) | Behavior of gene caused by administration of chemical substance, Gene No. 2494 ([1]; gene group (C), Unigene No. Rn.23969) | Behavior of gene caused by administration of chemical substance, Gene No. 2546 ([1]; gene group (C), Unigene No. Rn.24561) | Behavior of gene caused by administration of chemical substance, Gene No. 3776 ([1]; gene group (C), Unigene No. Rn.43232) | Behavior of gene caused by administration of chemical substance, Gene No. 3929 ([1]; gene group (C), Unigene No. Rn.4620) | Behavior of gene caused by administration of chemical substance, Gene No. 1119 ([1]; gene group (C), Unigene No. Rn.9757) | Behavior of gene caused by administration of chemical substance, Gene No. 6742 ([1]; gene group (C), Unigene No. Rn.9779) | Behavior of gene caused by administration of chemical substance, Gene No. 5634 ([1]; gene group (C), Unigene No. Rn.9862) | Behavior of gene caused by administration of chemical substance, Gene No. 5726 ([1]; gene group (D), Unigene No. Rn.9939)
C+: Carcinogenicity [3]
